Data on five molecules can be found in patent US9364426B2, “Method of making coated microstructures” (Georgia Tech Research Corporation, priority 2005, dated 2016).

Series [1] is described as follows: Delivery from individual coated microneedles in vitro into pig cadaver skin. The class given is in vitro ADME. The conditions noted are these: 20 s insertion into pig cadaver skin. How it is done: After removing the microneedles, fluorescence micrographs of coated microneedles and histological skin sections were collected using an Olympus IX70 fluorescent microscope with a CCD camera (RT Slider, Diagnostic Instruments). Brightfield micrographs were collected using an Olympus SZX12 stereomicroscope with a CCD camera (Leica DC 300, Leica Microsystems, Bannockburn, Ill., USA). Histological examination of pig cadaver skin was conducted on frozen sections. Pig cadaver skin was pierced with microneedles for 20 s, frozen in OCT compound (Tissue-Tek, 4583, Sakura Finetek, Torrance, Calif., USA), and cut into 10 μm-thick sections using a cryostat (Cryo-Star HM 560MV, Microm, Waldorf, Germany).

The nature of series [2]: In vitro dissolution of microneedle coating in pig cadaver skin. The class given is in vitro ADME. Conditions: single microneedles n=3. From the text: To assess the in vitro dissolution time, single microneedles (n=3) coated with vitamin B, calcein, or sulforhodamine, made as in Example 1, were inserted into pig cadaver skin for 10 s or 20 s. Upon removal, these microneedles were imaged by fluorescence microscopy to detect residual coating.

For series [3] the following is noted: cited from earlier work.
The conditions of series [4]: coated onto microneedles; six months storage under nitrogen at room temperature; cited from earlier work.
A further series relates to guinea pigs. The conditions noted are these: model antigen delivered from coated microneedles; cited from earlier work.
[5] abbreviates: 10 s insertion into pig cadaver skin.
Where [6] appears, read: 20 s insertion into pig cadaver skin.

Take `O=C(O)CN(CC(=O)O)Cc1cc2c(cc1O)Oc1cc(O)c(CN(CC(=O)O)CC(=O)O)cc1C21OC(=O)c2ccccc21` [calcein]: in series [1], the “distribution in skin, histology sections” value is recorded as “distribution of calcein along the periphery of the insertion point”. Moreover, the “residue on the skin after insertion” value in series [1] is recorded as “No residue was observed”. For the same molecule, the “dissolution of microneedle coating (residual coating by fluorescence microscopy)” value in series [2] (setting [5]) was “majority of the coating was dissolved”; in series [2] (setting [6]) it was “completely dissolved”. For `COc1cc(/C=C/C(=O)CC(=O)/C=C/c2ccc(O)c(OC)c2)ccc1O` [curcumin], the solubility in water entry in series [3] is “negligible”. As for `NC(=O)CC[C@@H]1NC(=O)[C@H](Cc2ccccc2)NC(=O)[C@H](Cc2ccc(O)cc2)NC(=O)CCSSC[C@@H](C(=O)N2CCC[C@H]2C(=O)N[C@H](CCCN=C(N)N)C(=O)NCC(N)=O)NC(=O)[C@H](CC(N)=O)NC1=O` [desmopressin], the integrity after storage in series [4] is 98%.

Turning to sulforhodamine, the “dissolution of microneedle coating (residual coating by fluorescence microscopy)” value in series [2] (setting [5]) is given as “majority of the coating was dissolved”; in series [2] (setting [6]), “completely dissolved”.

B1: ovalbumin (protein, UniProt P01012 2-386, looked up)
Ovalbumin: GSIGAASMEFCFDVFKELKVHHANENIFYCPIAIMSALAMVYLGAKDSTRTQINKVVRFDKLPGFGDSIEAQCGTSVNVHSSLRDILNQITKPNDVYSFSLASRLYAEERYPILPEYLQCVKELYRGGLEPINFQTAADQARELINSWVESQTNGIIRNVLQPSSVDSQTAMVLVNAIVFKGLWEKAFKDEDTQAMPFRVTEQESKPVQMMYQIGLFRVASMASEKMKILELPFASGTMSMLVLLPDEVSGLEQLESIINFEKLTEWTSSNVMEERKIKVYLPRMKMEEKYNLTSVLMAMGITDVFSSSANLSGISSAESLKISQAVHAAHAEINEAGREVVGSAEAGVDAASVSEEFRADHPFLFCIKHIATNAVLFFGRCVSP
notes: model ovalbumin antigen delivered from coated microneedles
For B1, the immune response entry in the series with guinea pigs was “strong immune response”.
